Legend:
Human P450scc = target: T1, Human P450scc (Homo sapiens, UniProt P05108); assay: Side-chain cleavage kinetics by human cytochrome P450scc in phospholipid vesicles; assay type: biochemical; details: for kcat: substrate and P450scc in dioleoylphosphatidylcholine vesicles containing cardiolipin, ±SE
T1 construct: made in house; host or cells: Escherichia coli
T1 sequence (P05108 40-521): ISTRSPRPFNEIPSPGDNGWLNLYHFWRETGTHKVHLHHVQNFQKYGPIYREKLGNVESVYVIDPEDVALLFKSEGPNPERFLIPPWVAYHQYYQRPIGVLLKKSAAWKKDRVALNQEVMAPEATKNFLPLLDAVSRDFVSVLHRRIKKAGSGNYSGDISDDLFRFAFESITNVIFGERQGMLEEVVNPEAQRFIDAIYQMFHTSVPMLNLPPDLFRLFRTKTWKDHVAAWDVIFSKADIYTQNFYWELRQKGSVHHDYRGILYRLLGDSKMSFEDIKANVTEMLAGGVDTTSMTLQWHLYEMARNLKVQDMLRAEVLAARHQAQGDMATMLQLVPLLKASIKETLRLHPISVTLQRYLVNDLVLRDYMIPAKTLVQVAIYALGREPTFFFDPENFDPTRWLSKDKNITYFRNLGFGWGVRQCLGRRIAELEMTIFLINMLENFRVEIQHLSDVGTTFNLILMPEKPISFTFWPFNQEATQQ
T1 sequence (P10109 61-184 partner): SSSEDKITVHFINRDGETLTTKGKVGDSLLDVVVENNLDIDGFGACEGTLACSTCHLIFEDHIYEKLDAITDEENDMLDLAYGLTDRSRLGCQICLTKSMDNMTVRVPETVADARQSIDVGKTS
Method: (§1) Large-scale reactions (50 mL) to cleave the side chain of 7-DHC were performed with purified bovine P450scc and its electron-transfer system in a manner similar to that described for cholesterol (41). The incubation mixture comprised 510 μM phospholipids vesicles (dioleoylphosphatidylcholine plus 15 mol % cardiolipin) with a substrate to phospholipids molar ration of 0.2 50 μM NADPH, 2 mM glucose 6-phosphate, 2 U-mL^−1 glucose 6-phosphate dehydrogenase, 0.3 μM adrenodoxin reductase, 6.5 μM adrenodoxin, 1.0 μM cytochrome P450scc and buffer, pH 7.4 (41). After incubation at 37° C. for 3 h, the mixture was extracted three times with 50 mL methylene chloride and dried under nitrogen at 35° C. Products were purified by preparative TLC on silica gel G with three developments in hexane/ethyl acetate (3:1 v/v) and products eluted from the silica gel with chloroform/methanol (1:1, v/v). Samples were dried under nitrogen and shipped for analysis on dry ice. Small-scale reactions (0.25 mL) to determine the kinetics of 7-DHC and cholesterol metabolism were performed with either bovine or human cytochrome P450scc as described for cholesterol (41). The amount of 7-DHP produced from 7-DHC was measured by RIA [25] using purified 7-DHP as standard.
Table 2 contains the kinetic parameters for side-cahin cleavage of 7-DHC and cholesterol by bovine and human cytochromes P450scc. Kinetic parameters were determined with substrates and P450scc incorporated into dioleoylphosphatidylcholine (PL) vesicles containing cardiolipin. Values for Kcat and Km are ±SE and are expressed as min^−1 and mol sterol-mol PL^−1, respectively. They were obtained from fitting hyperbolic curves to the kinetic data using […].

MLN64 and StAR = details: reconstituted in vitro system; compared with cholesterol; cited from earlier work
Bovine P450scc [1] = target: T2, Bovine P450scc (Bos taurus, UniProt P00189); details: 2-hydroxypropyl-β-cyclodextrin; cited from earlier work
T2 construct: isolated from adrenals; from tissue; host or cells: bovine adrenals
T2 sequence (P00189 40-520): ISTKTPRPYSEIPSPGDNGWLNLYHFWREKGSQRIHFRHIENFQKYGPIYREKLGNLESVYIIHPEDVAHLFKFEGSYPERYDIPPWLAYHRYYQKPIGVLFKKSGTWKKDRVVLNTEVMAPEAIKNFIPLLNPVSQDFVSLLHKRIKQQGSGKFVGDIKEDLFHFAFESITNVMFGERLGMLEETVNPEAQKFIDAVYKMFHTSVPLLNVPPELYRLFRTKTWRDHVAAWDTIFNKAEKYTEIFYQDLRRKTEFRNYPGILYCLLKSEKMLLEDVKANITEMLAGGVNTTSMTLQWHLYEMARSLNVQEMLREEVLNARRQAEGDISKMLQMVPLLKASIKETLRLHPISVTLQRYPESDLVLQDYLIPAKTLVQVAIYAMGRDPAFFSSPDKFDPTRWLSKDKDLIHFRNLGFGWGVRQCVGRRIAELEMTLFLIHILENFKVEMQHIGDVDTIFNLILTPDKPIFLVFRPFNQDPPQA
T2 sequence (P00257 59-186 partner): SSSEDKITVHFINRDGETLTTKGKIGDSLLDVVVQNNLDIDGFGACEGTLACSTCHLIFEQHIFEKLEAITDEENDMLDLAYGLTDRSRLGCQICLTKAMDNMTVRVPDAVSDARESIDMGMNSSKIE

Bovine P450scc [2] = target: T2, Bovine P450scc; assay: Side-chain cleavage kinetics by bovine cytochrome P450scc in phospholipid vesicles; assay type: biochemical; details: for kcat: substrate and P450scc in dioleoylphosphatidylcholine vesicles containing cardiolipin, ±SE
Method: as §1
Table 2 contains the kinetic parameters for side-cahin cleavage of 7-DHC and cholesterol by bovine and human cytochromes P450scc. Kinetic parameters were determined with substrates and P450scc incorporated into dioleoylphosphatidylcholine (PL) vesicles containing cardiolipin. Values for Kcat and Km are ±SE and are expressed as min^−1 and mol sterol-mol PL^−1, respectively. They were obtained from fitting hyperbolic curves to the kinetic data using KALEIDAGRAPH.

[3] = tested on: mitochondria from skin cells; assay: Side-chain cleavage of radiolabelled cholesterol by mitochondria isolated from skin cells; assay type: biochemical; details: for conversion relative to that reported for placental mitochondria: cutaneous mitochondria versus literature value for placental mitochondria
Method: Mitochondrial fractions of the test tissue, i.e., skin, adrenals or placenta, were prepared by homogenizing the tissue in 5 vols ice-cold 0.25 M sucrose containing protease inhibitor cocktail (Sigma) (38). The homogenate was centrifuged at 600 g for 10 min at 4° C., and the resulting supernatant was centrifuged at 6000 g (placenta) or 9000 g (skin and adrenals) for 20 min at 4° C. to sediment the mitochondrial fraction. The pellet was resuspended in 0.25 M sucrose, and the mitochondrial fraction was again sedimented under the same conditions. The washed mitochondrial fraction was resuspended in 0.25 M sucrose and used for enzymatic reaction. For cultured skin cells, the above procedure was carried out after the cells had been swelled for 30 min in 20 mM HEPES, pH 7.4, before homogenization.
[4-^14C]Cholesterol (58 mCi.mmol^−1; Amersham Bioscience) was purified before its use as a substrate by mitochondria, by TLC on silica gel G plates in hexane/acetone (7:3, v/v). Isolated mitochondria (0.5 mg protein) were then preincubated (15 min at 37° C.) with purified [4-^14C]cholesterol (1 μCi, 34 μM) in 0.5 mL medium comprising 0.25M sucrose, 50 mM HEPES, pH 7.4, 20 mM KCl, 5 mM MgSO4, 0.2 mM EDTA, 0.4 μM adrenodoxin reductase, 6 μM adrenodoxin, 5 μM N-62 StAR protein (gift from W. Miller, University of California, San Francisco, Calif., USA) and 8 μM cyanoketone. The reaction was started by adding NADPH (0.5 mM) and isocitrate (5 mM), and samples were incubated at 37° C. for 150 min. The reaction was stopped by the addition of 1 mL ice-cold methylene chloride, and the incubation mixture extracted twice more with 1 mL methylene chloride. The fractions were combined, dried under nitrogen, and subjected to TLC on silica gel G plates and developed with hexane/acetone (7:3, v/v). Radiolabelled products were visualized using a phosphoimager, the steroids eluted from the plate with chloroform/methanol (1:1, v/v), and the associated radioactivity measured by scintillation counting.

[4] = cutaneous mitochondria, 34 μM substrate, 150 min at 37° C.

Row | Compound | kcat relative to that for cholesterol (Human P450scc) | kcat (Human P450scc) | efficiency of transport from donor to acceptor vesicles (MLN64 and StAR) | Vmax compared with cholesterol (Bovine P450scc [1]) | kcat (Bovine P450scc [2]) | kcat relative to that for cholesterol (Bovine P450scc [2]; substrate dissolved in membrane of phospholipid vesicles) | conversion relative to that reported for placental mitochondria [3] | conversion relative to that reported for placental mitochondria ([3]; listed as [4-^14C]-cholesterol) | rate of conversion into pregnenolone [3, 4] | rate of conversion into progesterone [3, 4]
1 | CC(C)CCC[C@@H](C)[C@H]1CC[C@H]2C3=CC=C4C[C@@H](O)CC[C@]4(C)[C@H]3CC[C@]12C [7-DHC, cholesta-5,7-dien-3β-ol] | 70% | 0.222 ± 0.0067 s⁻¹ | efficiency similar to that for cholesterol | same Vmax for 7-DHC and cholesterol | 0.407 ± 0.0183 s⁻¹ | 62% |  |  |  | 
2 | CC(C)CCC[C@@H](C)[C@H]1CC[C@H]2[C@@H]3CC=C4C[C@@H](O)CC[C@]4(C)[C@H]3CC[C@]12C [Cholesterol, cholesterol] |  | 0.317 ± 0.0067 s⁻¹ |  |  | 0.655 ± 0.0283 s⁻¹ |  |  |  |  | 
3 | CC(C)CCC[C@@H](C)[C@H]1CC[C@H]2[C@@H]3CC=C4[14CH2][C@@H](O)CC[C@]4(C)[C@H]3CC[C@]12C [[4-^14C]cholesterol, [4-^14C]Cholesterol] |  |  |  |  |  |  | ~1% | approximately 1% | 0.14% | 0.04%
